Tests used:
Type in all cases: biochemical
Kit = Kit (Homo sapiens, UniProt P10721); assay: Kinase activity assay, Kit; settings: under the test conditions employed; read-out: activity toward kinase Kit, IC50
From the text: (§1) Assays for the activity of kinases, including, but not limited to, B-Raf, B-Raf V600E, B-Raf […] and c-Raf-1 are known in the art, for example as described in U.S. patent application Ser. No. 11/473,347 (see Iso, PCT publication WO2007002433), the disclosure of which is hereby incorporated by reference in its entirety.

Kdr = Kdr (Homo sapiens, UniProt P35968); assay: Kinase activity assay, Kdr; settings: under the test conditions employed; read-out: activity toward kinase Kdr, IC50
From the text: as §1

Src = Src (Homo sapiens, UniProt P12931); assay: Kinase activity assay, Src; settings: under the test conditions employed; read-out: activity toward kinase Src, IC50
From the text: as §1

B-Raf V600E = B-Raf V600E (Homo sapiens, UniProt P15056, V600E); assay: Kinase activity assay, B-Raf V600E; settings: under the test conditions employed; read-out: activity toward kinase B-Raf V600E, IC50
From the text: as §1

B-Raf = B-Raf (Homo sapiens, UniProt P15056); assay: Kinase activity assay, B-Raf; settings: under the test conditions employed; read-out: activity toward kinase B-Raf, IC50
From the text: as §1

c-Raf-1 = c-Raf-1 (Homo sapiens, UniProt P04049); assay: Kinase activity assay, c-Raf-1; settings: under the test conditions employed; read-out: activity toward kinase c-Raf-1, IC50
From the text: as §1

Fms = Fms (Homo sapiens, UniProt P07333); assay: Kinase activity assay, Fms; settings: under the test conditions employed; read-out: activity toward kinase Fms, IC50
From the text: as §1

Measured: IC50

Chain of Kdr (P35968 20-1356): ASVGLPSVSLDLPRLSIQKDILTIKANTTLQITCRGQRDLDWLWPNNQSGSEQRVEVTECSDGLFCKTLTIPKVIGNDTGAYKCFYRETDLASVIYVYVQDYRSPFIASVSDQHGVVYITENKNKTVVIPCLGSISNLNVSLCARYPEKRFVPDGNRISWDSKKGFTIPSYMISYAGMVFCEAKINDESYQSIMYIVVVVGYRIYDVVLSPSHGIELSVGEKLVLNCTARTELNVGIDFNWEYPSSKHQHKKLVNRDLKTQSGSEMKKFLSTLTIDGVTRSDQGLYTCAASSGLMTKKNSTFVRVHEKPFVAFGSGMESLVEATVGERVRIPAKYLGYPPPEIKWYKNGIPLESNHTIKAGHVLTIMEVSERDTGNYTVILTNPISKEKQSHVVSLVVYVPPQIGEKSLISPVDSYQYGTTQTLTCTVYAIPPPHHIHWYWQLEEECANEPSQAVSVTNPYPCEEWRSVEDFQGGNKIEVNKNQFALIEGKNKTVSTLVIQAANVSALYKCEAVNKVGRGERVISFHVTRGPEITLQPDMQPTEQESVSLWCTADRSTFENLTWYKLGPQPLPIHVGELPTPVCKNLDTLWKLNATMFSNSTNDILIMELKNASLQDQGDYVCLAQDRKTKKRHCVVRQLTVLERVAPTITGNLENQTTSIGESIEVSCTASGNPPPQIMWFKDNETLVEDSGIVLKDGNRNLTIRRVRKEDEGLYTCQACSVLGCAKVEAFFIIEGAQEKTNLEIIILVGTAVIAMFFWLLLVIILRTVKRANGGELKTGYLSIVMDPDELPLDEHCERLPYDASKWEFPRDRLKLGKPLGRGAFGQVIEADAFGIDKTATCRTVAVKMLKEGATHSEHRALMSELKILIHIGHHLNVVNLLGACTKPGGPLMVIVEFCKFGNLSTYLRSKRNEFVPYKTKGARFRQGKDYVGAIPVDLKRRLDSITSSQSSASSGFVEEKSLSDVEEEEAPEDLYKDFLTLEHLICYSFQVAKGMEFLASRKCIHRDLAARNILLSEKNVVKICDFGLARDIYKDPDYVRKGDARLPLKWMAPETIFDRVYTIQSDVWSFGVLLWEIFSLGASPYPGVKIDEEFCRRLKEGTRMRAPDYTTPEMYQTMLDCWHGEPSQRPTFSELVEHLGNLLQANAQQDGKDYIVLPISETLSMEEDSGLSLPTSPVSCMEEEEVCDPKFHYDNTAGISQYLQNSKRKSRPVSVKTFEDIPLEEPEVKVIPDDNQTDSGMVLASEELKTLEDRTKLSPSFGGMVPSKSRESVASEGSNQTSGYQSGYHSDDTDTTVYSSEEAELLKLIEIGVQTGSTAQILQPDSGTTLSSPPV
Chain of Kit (P10721 26-976): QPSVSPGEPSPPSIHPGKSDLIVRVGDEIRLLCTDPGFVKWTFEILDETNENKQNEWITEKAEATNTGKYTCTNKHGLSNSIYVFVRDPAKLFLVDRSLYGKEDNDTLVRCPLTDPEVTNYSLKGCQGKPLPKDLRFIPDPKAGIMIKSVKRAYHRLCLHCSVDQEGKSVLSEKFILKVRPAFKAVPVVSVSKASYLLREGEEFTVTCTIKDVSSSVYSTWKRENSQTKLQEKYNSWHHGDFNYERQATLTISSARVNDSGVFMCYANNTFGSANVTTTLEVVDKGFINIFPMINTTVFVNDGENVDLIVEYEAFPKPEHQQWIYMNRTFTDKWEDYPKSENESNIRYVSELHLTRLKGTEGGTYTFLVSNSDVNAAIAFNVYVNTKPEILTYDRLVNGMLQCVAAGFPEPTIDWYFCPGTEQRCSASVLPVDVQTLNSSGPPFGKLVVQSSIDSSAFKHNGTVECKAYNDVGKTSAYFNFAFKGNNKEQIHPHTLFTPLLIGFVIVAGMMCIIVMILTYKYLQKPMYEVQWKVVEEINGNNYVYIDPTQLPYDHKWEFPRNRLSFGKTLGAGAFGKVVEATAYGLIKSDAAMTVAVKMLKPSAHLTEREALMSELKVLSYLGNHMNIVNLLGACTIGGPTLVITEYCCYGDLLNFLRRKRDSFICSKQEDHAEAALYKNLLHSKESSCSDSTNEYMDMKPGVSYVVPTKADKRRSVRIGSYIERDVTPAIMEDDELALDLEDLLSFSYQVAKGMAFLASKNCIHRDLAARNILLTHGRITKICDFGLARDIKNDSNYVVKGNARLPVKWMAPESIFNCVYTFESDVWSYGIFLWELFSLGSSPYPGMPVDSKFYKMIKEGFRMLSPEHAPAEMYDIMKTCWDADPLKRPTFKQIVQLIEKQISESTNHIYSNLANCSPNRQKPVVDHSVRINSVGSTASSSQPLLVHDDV
Chain of B-Raf V600E (P15056 whole entry V600E): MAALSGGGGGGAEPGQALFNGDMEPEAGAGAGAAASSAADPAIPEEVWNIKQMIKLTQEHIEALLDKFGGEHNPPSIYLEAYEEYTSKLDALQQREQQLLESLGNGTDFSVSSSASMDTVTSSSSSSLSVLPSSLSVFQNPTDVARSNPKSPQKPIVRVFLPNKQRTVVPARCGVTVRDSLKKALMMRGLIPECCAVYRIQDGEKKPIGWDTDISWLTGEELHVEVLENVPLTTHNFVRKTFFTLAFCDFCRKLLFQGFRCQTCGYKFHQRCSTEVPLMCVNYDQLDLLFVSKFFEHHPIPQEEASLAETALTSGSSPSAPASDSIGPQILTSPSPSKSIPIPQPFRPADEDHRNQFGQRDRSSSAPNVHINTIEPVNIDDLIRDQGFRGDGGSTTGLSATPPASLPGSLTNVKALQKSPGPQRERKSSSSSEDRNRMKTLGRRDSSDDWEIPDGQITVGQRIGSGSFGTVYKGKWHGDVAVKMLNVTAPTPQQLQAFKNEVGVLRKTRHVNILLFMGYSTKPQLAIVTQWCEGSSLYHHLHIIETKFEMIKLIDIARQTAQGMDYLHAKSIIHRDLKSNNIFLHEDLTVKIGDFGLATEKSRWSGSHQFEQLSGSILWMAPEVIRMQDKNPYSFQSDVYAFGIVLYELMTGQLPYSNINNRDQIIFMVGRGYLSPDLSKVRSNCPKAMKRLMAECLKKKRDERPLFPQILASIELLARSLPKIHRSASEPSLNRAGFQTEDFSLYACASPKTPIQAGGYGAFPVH
Chain of Src (P12931 whole entry): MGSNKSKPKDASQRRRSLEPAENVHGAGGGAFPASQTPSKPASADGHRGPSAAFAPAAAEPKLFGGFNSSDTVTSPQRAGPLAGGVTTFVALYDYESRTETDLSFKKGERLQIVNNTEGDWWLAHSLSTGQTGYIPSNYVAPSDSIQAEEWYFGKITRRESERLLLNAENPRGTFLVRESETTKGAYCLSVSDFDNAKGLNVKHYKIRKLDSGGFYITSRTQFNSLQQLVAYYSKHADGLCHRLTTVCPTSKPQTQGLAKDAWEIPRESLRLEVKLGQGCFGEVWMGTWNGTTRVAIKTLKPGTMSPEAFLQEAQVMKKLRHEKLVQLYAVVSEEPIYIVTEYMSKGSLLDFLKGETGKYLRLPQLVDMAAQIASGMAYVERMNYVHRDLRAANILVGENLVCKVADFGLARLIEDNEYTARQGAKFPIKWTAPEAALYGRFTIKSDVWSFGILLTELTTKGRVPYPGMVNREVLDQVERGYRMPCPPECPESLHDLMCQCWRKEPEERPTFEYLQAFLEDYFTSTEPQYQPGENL
Chain of c-Raf-1 (P04049 whole entry): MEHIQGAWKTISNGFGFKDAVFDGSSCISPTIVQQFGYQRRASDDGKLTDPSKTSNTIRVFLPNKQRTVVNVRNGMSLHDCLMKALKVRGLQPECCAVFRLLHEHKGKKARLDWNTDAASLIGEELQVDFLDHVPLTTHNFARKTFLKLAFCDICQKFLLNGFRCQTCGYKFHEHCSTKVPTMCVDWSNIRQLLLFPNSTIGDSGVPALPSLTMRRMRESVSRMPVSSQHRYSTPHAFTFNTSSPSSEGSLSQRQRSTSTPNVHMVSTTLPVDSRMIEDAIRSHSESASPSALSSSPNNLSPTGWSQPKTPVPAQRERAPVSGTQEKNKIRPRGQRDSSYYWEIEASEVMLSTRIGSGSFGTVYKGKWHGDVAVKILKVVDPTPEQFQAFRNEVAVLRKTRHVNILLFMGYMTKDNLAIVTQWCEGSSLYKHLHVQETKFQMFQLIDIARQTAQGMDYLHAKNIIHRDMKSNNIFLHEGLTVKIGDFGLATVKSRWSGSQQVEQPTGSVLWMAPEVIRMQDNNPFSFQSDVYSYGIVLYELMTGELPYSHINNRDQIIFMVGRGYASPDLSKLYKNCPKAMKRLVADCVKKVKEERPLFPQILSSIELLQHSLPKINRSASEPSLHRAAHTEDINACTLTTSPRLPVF
Chain of B-Raf (P15056 whole entry): as the sequence (P15056 whole entry V600E) above, with E600V counted along it

Cn1ccc(S(=O)(=O)Nc2ccc(F)c(C(=O)c3c[nH]c4ncc(Cl)cc34)c2F)n1 [Compound P-0029, 1-Methyl-1H-pyrazole-3-sulfonic acid [3-(5-chloro-1H-pyrrolo[2,3-b]pyridine-3-carbonyl)-2,4-difluoro-phenyl]-amide]
≤ 10 µM: Kit | Kdr | Src | B-Raf V600E

CCCc1ccc(S(=O)(=O)Nc2ccc(F)c(C(=O)c3c[nH]c4ncc(Cl)cc34)c2F)cc1 [Compound P-0015, N-[3-(5-Chloro-1H-pyrrolo[2,3-b]pyridine-3-carbonyl)-2,4-difluoro-phenyl]-4-propyl-benzenesulfonamide]
not listed: Kdr
≤ 10 µM: all other assays above

Cc1ccc2sc(S(=O)(=O)Nc3ccc(F)c(C(=O)c4c[nH]c5ncc(Cl)cc45)c3F)cc2c1 [Compound P-0017, 5-Methyl-benzo[b]thiophene-2-sulfonic acid [3-(5-chloro-1H-pyrrolo[2,3-b]pyridine-3-carbonyl)-2,4-difluoro-phenyl]-amide]
not listed: Kdr | Fms
≤ 10 µM: all other assays above

O=C(c1c(F)ccc(NS(=O)(=O)c2csc3ccccc23)c1F)c1c[nH]c2ncc(Cl)cc12 [Compound P-0001, Benzo[b]thiophene-3-sulfonic acid [3-(5-chloro-1H-pyrrolo[2,3-b]pyridine-3-carbonyl)-2,4-difluoro-phenyl]-amide]
not listed: Src
≤ 10 µM: all other assays above

COc1cnc2[nH]cc(C(=O)c3c(F)ccc(NS(=O)(=O)c4ccccn4)c3F)c2c1 [Compound P-0036, Pyridine-2-sulfonic acid [2,4-difluoro-3-(5-methoxy-1H-pyrrolo[2,3-b]pyridine-3-carbonyl)-phenyl]-amide]
≤ 10 µM: B-Raf | Src

CCCCOc1ccc(S(=O)(=O)Nc2ccc(F)c(C(=O)c3c[nH]c4ncc(Cl)cc34)c2F)cc1 [Compound P-0007, 4-Butoxy-N-[3-(5-chloro-1H-pyrrolo[2,3-b]pyridine-3-carbonyl)-2,4-difluoro-phenyl]-benzenesulfonamide]
≤ 10 µM: B-Raf | Kit | B-Raf V600E | c-Raf-1

COC(=O)CCc1cnc2[nH]cc(C(=O)c3c(F)ccc(NS(=O)(=O)c4ccc(C(F)(F)F)cc4)c3F)c2c1 [Compound P-0033, 3-{3-[2,6-difluoro-3-(4-trifluoromethyl-benzenesulfonylamino)-benzoyl]-1H-pyrrolo[2,3-b]pyridin-5-yl}-propionic acid methyl ester]
≤ 10 µM: B-Raf | B-Raf V600E

Cc1cnc2[nH]cc(C(=O)c3c(F)ccc(NS(=O)(=O)c4ccc(C(F)(F)F)cc4)c3F)c2c1 [Compound P-0030, N-[2,4-Difluoro-3-(5-methyl-1H-pyrrolo[2,3-b]pyridine-3-carbonyl)-phenyl]-4-trifluoromethyl-benzenesulfonamide]
≤ 10 µM: B-Raf | B-Raf V600E | c-Raf-1

COC(=O)/C=C/c1cnc2[nH]cc(C(=O)c3c(F)ccc(NS(=O)(=O)c4ccc(C(F)(F)F)cc4)c3F)c2c1 [Compound P-0032, (E)-3-{3-[2,6-Difluoro-3-(4-trifluoromethyl-benzenesulfonylamino)-benzoyl]-1H-pyrrolo[2,3-b]pyridin-5-yl}-acrylic acid methyl ester]
≤ 10 µM: B-Raf | Kit | Kdr | B-Raf V600E

CC(C)(C)c1ccc(S(=O)(=O)Nc2ccc(F)c(C(=O)c3c[nH]c4ncc(Cl)cc34)c2F)cc1 [Compound P-0014, 4-tert-Butyl-N-[3-(5-chloro-1H-pyrrolo[2,3-b]pyridine-3-carbonyl)-2,4-difluoro-phenyl]-benzenesulfonamide]
not listed: Src
≤ 10 µM: all other assays above

CC(C)Oc1ccc(S(=O)(=O)Nc2ccc(F)c(C(=O)c3c[nH]c4ncc(Cl)cc34)c2F)cc1 [Compound P-0011, N-[3-(5-Chloro-1H-pyrrolo[2,3-b]pyridine-3-carbonyl)-2,4-difluoro-phenyl]-4-isopropoxy-benzenesulfonamide]
not listed: B-Raf V600E
≤ 10 µM: all other assays above

CCNC(=O)CCc1cnc2[nH]cc(C(=O)c3c(F)ccc(NS(=O)(=O)c4ccc(C(F)(F)F)cc4)c3F)c2c1 [Compound P-0035, 3-{3-[2,6-Difluoro-3-(4-trifluoromethyl-benzenesulfonylamino)-benzoyl]-1H-pyrrolo[2,3-b]pyridin-5-yl}-N-ethyl-propionamide]
≤ 10 µM: B-Raf | Kit | B-Raf V600E | Fms

O=C(O)CCc1cnc2[nH]cc(C(=O)c3c(F)ccc(NS(=O)(=O)c4ccc(C(F)(F)F)cc4)c3F)c2c1 [Compound P-0034, 3-{3-[2,6-difluoro-3-(4-trifluoromethyl-benzenesulfonylamino)-benzoyl]-1H-pyrrolo[2,3-b]pyridin-5-yl}-propionic acid]
≤ 10 µM: B-Raf | Kdr | B-Raf V600E

Cn1cc(S(=O)(=O)Nc2ccc(F)c(C(=O)c3c[nH]c4ncc(Cl)cc34)c2F)c(C(F)(F)F)n1 [Compound P-0010, 1-Methyl-3-trifluoromethyl-1H-pyrazole-4-sulfonic acid [3-(5-chloro-1H-pyrrolo[2,3-b]pyridine-3-carbonyl)-2,4-difluoro-phenyl]-amide]
≤ 10 µM: Kit | Kdr | Src | Fms

COCCOc1cnc2[nH]cc(C(=O)c3c(F)ccc(NS(=O)(=O)c4ccc(C(C)C)cc4)c3F)c2c1 [Compound P-0018, N-{2,4-Difluoro-3-[5-(2-methoxy-ethoxy)-1H-pyrrolo[2,3-b]pyridine-3-carbonyl]-phenyl}-4-isopropyl-benzenesulfonamide]
not listed: B-Raf V600E | Fms
≤ 10 µM: all other assays above

CCCc1ccc(S(=O)(=O)Nc2ccc(F)c(C(=O)c3c[nH]c4ncc(-c5ncc(C)n5C)cc34)c2F)cc1 [Compound P-0027, N-{3-[5-(1,5-Dimethyl-1H-imidazol-2-yl)-1H-pyrrolo[2,3-b]pyridine-3-carbonyl]-2,4-difluoro-phenyl}-4-propyl-benzenesulfonamide]
≤ 10 µM: B-Raf | Kit | Kdr | Fms

O=C(O)c1cccc(S(=O)(=O)Nc2ccc(F)c(C(=O)c3c[nH]c4ncc(Cl)cc34)c2F)c1 [Compound P-0004, 3-[3-(5-Chloro-1H-pyrrolo[2,3-b]pyridine-3-carbonyl)-2,4-difluoro-phenylsulfamoyl]-benzoic acid]
≤ 10 µM: Kdr | Src

Cc1cc(S(=O)(=O)Nc2ccc(F)c(C(=O)c3c[nH]c4ncc(Cl)cc34)c2F)c(C(F)(F)F)o1 [Compound P-0002, 5-Methyl-2-trifluoromethyl-furan-3-sulfonic acid [3-(5-chloro-1H-pyrrolo[2,3-b]pyridine-3-carbonyl)-2,4-difluoro-phenyl]-amide]
≤ 10 µM: all assays above

O=C(c1c(F)ccc(NS(=O)(=O)c2ccc3ncsc3c2)c1F)c1c[nH]c2ncc(Cl)cc12 [Compound P-0009, Benzothiazole-6-sulfonic acid [3-(5-chloro-1H-pyrrolo[2,3-b]pyridine-3-carbonyl)-2,4-difluoro-phenyl]-amide]
not listed: Kdr
≤ 10 µM: all other assays above

Cc1ccc(S(=O)(=O)Nc2ccc(F)c(C(=O)c3c[nH]c4ncc(Cl)cc34)c2F)s1 [Compound P-0028, 5-Methyl-thiophene-2-sulfonic acid [3-(5-chloro-1H-pyrrolo[2,3-b]pyridine-3-carbonyl)-2,4-difluoro-phenyl]-amide]
not listed: c-Raf-1
≤ 10 µM: all other assays above

O=C(c1c(F)ccc(NS(=O)(=O)c2ccc(-n3cccn3)cc2)c1F)c1c[nH]c2ncc(Cl)cc12 [Compound P-0008, N-[3-(5-Chloro-1H-pyrrolo[2,3-b]pyridine-3-carbonyl)-2,4-difluoro-phenyl]-4-pyrazol-1-yl-benzenesulfonamide]
≤ 10 µM: Kit | Kdr | Src | c-Raf-1
